Results on three molecules are retold here after US6399637B1, “Crystal modification of torasemide” (PLIVA, farmaceutska, kemijska, prehrambena i kozmeticka …, priority 1998, dated 2002).

Format in all cases: physicochemical
The nature of data set [1]: Dissolution test of torasemide in water (USP 23). Conditions: for % Dissolved torasemide: water, USP 23, 37° C., 50 rpm., 1000 ml. Here is the method:
(§1) The microcrystallinic modifications I, II and III of torasemide prepared according to Acta Crst. B34 (1978), 1304-1310 and Example 1 were subjected to dissolution testing in water, and in artificial intestinal juice, at 37° C.

A short description of data set [2]: Intrinsic Dissolution Rate in a model of artificial gastric juice.
Data set [3] in a line: Dissolution test in artificial intestinal juice (USP 23). On the procedure: as §1
A short description of data set [4]: Stability of the crystal modification on storage and at increased humidity.

Molecules are shown by their SMILES.

For the molecule `Cc1cccc(Nc2ccncc2S(=O)(=O)NC(=O)NC(C)C)c1` [Mod. I, N-(1-methylethylaminocarbonyl)-4-(3-methyl-phenylamino)-3-pyridinesulfonamide], the “% Dissolved torasemide” value in data set [1] (0 minutes) is listed as 0%; in data set [1] (10 minutes), 6.7%; in data set [1] (20 minutes), 13.0%; in data set [1] (30 minutes), 18.5%; in data set [1] (40 minutes), 23.5%; in data set [1] (50 minutes) it was 28.5%. Further, the “% Dissolved torasemide” value in data set [1] (60 minutes) is reported as 32.8%.
Regarding `Cc1cccc(Nc2ccncc2S(=O)(=O)NC(=O)NC(C)C)c1` [Mod. II, N-(1-methylethylaminocarbonyl)-4-(3-methyl-phenylamino)-3-pyridinesulfonamide], the “% Dissolved torasemide” value is 0% in data set [1] (0 minutes); 15.1% in data set [1] (10 minutes); 27.8% in data set [1] (20 minutes); 39.2% in data set [1] (30 minutes); 48.8% in data set [1] (40 minutes); 56.3% in data set [1] (50 minutes). In addition, in data set [1] (60 minutes), the “% Dissolved torasemide” value was 65.1%.
As for `Cc1cccc(Nc2ccncc2S(=O)(=O)NC(=O)NC(C)C)c1` [Mod. III, N-(1-methylethylaminocarbonyl)-4-(3-methyl-phenylamino)-3-pyridinesulfonamide], the “dissolution profile (USP 23) in comparison to known crystal modifications I and II” value in data set [1] (in water) and in data set [3] was “significant difference” in each case. Besides, the “% Dissolved torasemide” value in data set [1] (0 minutes) is listed as 0%; in data set [1] (10 minutes), 15.6%; in data set [1] (20 minutes), 28.1%; in data set [1] (30 minutes), 37.7%; in data set [1] (40 minutes), 43.6%; in data set [1] (50 minutes), 48.5%. In data set [1] (60 minutes), the “% Dissolved torasemide” value is reported as 51.1%. In addition, the “IDR (Intrinsic Dissolution Rate)” value in data set [2] is on record as “exceeds 1 mg cm^−2min^−1”. Further, the “stability of the crystal modification (no transformation into modification I or II)” value in data set [4] (normal storage conditions) and in data set [4] (subjected to increased humidity) was “stable” in each case.
